The text below walks through data of patent US12521353B1, “Encapsulated resveratrol (RSV) nanoparticles” (priority 2024, dated 2026).

Holding throughout (type): in vivo
In data set [1] the test system is apoptosis-related factors (Bax and Bcl-2). The data set is described as follows: Overall immunohistochemical assessment of apoptosis-related factors (Bax and Bcl-2), mycotoxin-induced apoptosis in rat testis. As to conditions: testis of rats exposed to ZEA and treated. An excerpt:
(§1) As described herein, the therapeutic efficacy of the encapsulated RSV nanoparticles can be evaluated based on immunohistochemical assessment of apoptosis-related factors (Bax and Bcl-2) in the testis and the gene expression of constitutive androstane receptor (CAR), a well-known xenobiotic-sensing nuclear receptor in the liver, of rats exposed to a fungal mycotoxin, zearalenone (ZEA). The encapsulated RSV nanoparticles reversed the toxic effects of the mycotoxin, as reflected by intense Bcl-2 immunoreactivity and negligible Bax immunoreactivity. Further, the expression of the CAR gene was enhanced by treatment with the present RSV nanoparticles.
(§2) IHC assay was conducted to estimate the toxic impact of ZEA and the ameliorative effect of RSV and its nano-formulation on the expression of apoptosis-related factors (Bax and Bcl-2).
Testes sections stained immunohistochemically against Bcl-2 was noticeably higher (brown color) in control group that received distilled water (FIG. 5A), compared with the group that received 0.1 mg/kg of ZEA that have almost no Bcl-2 immunoreactivity (FIG. 5B). […] High Bcl-2 immunoreactivity was detected in the groups that received 10 mg/kg RSV or 10 mg/kg RSV NPs (FIGS. 5E and 5F). […]

For another data set, the system named is Bcl-2. The data set is described as follows: IHC assay of apoptosis-related factor Bcl-2 in testis of rats exposed to ZEA. To be noted: rat testis.
Source text: as §1
Testes sections stained immunohistochemically against Bcl-2 was noticeably higher (brown color) in control group that received distilled water (FIG. 5A), compared with the group that received 0.1 mg/kg of ZEA that have almost no Bcl-2 immunoreactivity (FIG. 5B). […] High Bcl-2 immunoreactivity was detected in the groups that received 10 mg/kg RSV or 10 mg/kg RSV NPs (FIGS. 5E and 5F).

For a further data set, the system named is Bax. As to the kind of experiment: IHC assay of apoptosis-related factor Bax in testis of rats exposed to ZEA. To be noted: rat testis.
Source text: as §1, §2

Setting [2] is: 0.1 mg/kg ZEA + 10 mg/kg treatment.
[3] abbreviates: 10 mg/kg alone, no ZEA, 10 mg/kg.

Entries after “also recorded” stand apart in the source; their conditions may differ.

In the case of `Oc1ccc(C=Cc2cc(O)cc(O)c2)cc1` [RSV, Resveratrol], the “effect on apoptosis induced by the mycotoxin (expression of Bax and Bcl-2 factors)” value in data set [1] is listed as “effectively reduced”. The Bcl-2 immunoreactivity entry is “moderate” in the data set with Bcl-2 (setting [2]); “intense and High” in the data set on Bcl-2 (setting [3]). Moreover, the Bax immunoreactivity result with Bax (setting [2]) is reported as “moderate to low”; in the data set on Bax (setting [3]), “negative; also recorded: Almost no”.

For `C[C@H]1CCCC(=O)CCC/C=C/c2cc(O)cc(O)c2C(=O)O1` [ZEA, zearalenone], in the data set on Bcl-2 (0.1 mg/kg ZEA alone, 0.1 mg/kg), the Bcl-2 immunoreactivity entry was “weak and almost no”. Also, the Bax immunoreactivity entry in the data set on Bax (0.1 mg/kg ZEA alone) is “intense”.
